One assay deals with PIK3CG (human) (UniProt P48736). Briefly: Inhibition of PIK3CG Kinase Activity.
Another assay concerns the target PIK3CA (human) (UniProt P42336). Briefly: Inhibition of PIK3CA Kinase Activity.
The next assay addresses PIK3CB (Human) (UniProt P42338). In words: Inhibition of PIK3CB Kinase Activity.
The target in the next assay is PIK3CD (Human) (UniProt O00329). In words: Inhibition of PIK3CD Kinase Activity.

“And” between values parts separate entries of the source, which are not always exact repeats. Equal entries are not always repeated.

Drawing on the Kinase Knowledgebase extract (Sharma et al. 2016), this text covers IC50 for two molecules.

Chain of PIK3CA (human) (P42336 whole entry, looked up): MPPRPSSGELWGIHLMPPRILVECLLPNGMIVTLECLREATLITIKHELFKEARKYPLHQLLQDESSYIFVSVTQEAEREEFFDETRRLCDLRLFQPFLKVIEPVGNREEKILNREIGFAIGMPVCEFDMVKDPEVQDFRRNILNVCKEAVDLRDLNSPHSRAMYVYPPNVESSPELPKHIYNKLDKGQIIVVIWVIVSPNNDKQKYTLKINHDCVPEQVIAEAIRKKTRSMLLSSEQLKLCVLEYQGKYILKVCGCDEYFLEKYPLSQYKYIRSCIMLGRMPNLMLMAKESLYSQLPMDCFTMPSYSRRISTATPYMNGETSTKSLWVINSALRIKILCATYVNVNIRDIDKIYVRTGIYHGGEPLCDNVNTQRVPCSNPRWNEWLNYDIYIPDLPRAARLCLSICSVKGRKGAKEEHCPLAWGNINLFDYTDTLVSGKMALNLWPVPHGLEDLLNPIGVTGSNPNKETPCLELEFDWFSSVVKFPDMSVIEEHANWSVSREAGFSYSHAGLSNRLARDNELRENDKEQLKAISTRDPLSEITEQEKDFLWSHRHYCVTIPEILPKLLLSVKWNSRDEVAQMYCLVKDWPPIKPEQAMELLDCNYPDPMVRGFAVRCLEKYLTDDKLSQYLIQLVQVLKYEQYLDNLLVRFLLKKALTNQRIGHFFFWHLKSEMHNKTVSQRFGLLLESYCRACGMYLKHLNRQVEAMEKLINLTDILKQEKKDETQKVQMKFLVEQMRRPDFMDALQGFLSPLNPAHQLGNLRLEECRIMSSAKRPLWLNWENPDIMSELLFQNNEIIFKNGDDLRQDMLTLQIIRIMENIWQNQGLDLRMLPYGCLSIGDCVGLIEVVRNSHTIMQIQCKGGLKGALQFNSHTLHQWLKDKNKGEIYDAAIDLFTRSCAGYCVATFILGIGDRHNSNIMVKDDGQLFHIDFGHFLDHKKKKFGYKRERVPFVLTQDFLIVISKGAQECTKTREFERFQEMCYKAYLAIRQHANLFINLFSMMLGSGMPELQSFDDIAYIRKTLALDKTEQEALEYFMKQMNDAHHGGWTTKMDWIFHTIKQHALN
Chain of PIK3CG (human) (P48736 whole entry, looked up): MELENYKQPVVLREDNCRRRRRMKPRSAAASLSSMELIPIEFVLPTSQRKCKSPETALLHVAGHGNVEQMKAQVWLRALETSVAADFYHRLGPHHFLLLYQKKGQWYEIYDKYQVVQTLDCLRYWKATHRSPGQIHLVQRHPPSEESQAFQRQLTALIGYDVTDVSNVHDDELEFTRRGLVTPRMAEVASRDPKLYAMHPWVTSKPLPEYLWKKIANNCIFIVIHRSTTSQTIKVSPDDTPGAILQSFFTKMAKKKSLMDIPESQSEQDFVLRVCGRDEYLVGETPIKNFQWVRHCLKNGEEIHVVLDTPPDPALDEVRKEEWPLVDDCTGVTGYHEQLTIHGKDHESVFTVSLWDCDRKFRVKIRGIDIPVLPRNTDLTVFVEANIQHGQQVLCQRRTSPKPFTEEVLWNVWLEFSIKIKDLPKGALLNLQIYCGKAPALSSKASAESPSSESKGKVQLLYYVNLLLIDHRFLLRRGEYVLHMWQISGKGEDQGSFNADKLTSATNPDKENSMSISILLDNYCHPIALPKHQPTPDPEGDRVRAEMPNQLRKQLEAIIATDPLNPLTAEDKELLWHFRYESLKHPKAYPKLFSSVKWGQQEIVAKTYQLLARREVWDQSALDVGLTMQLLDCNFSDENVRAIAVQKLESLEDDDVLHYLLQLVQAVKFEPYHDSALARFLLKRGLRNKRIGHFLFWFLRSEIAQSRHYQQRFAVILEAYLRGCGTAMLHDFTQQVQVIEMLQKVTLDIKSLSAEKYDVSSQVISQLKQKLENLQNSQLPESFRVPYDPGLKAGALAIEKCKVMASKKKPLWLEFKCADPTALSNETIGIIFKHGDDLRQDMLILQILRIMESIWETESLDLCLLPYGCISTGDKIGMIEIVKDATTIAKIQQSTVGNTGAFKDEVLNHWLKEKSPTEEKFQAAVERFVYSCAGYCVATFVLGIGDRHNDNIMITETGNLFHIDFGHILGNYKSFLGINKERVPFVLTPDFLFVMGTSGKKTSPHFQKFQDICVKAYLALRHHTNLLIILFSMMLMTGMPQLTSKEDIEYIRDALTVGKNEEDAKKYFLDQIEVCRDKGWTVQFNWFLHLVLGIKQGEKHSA
Chain of PIK3CD (Human) (O00329 whole entry, looked up): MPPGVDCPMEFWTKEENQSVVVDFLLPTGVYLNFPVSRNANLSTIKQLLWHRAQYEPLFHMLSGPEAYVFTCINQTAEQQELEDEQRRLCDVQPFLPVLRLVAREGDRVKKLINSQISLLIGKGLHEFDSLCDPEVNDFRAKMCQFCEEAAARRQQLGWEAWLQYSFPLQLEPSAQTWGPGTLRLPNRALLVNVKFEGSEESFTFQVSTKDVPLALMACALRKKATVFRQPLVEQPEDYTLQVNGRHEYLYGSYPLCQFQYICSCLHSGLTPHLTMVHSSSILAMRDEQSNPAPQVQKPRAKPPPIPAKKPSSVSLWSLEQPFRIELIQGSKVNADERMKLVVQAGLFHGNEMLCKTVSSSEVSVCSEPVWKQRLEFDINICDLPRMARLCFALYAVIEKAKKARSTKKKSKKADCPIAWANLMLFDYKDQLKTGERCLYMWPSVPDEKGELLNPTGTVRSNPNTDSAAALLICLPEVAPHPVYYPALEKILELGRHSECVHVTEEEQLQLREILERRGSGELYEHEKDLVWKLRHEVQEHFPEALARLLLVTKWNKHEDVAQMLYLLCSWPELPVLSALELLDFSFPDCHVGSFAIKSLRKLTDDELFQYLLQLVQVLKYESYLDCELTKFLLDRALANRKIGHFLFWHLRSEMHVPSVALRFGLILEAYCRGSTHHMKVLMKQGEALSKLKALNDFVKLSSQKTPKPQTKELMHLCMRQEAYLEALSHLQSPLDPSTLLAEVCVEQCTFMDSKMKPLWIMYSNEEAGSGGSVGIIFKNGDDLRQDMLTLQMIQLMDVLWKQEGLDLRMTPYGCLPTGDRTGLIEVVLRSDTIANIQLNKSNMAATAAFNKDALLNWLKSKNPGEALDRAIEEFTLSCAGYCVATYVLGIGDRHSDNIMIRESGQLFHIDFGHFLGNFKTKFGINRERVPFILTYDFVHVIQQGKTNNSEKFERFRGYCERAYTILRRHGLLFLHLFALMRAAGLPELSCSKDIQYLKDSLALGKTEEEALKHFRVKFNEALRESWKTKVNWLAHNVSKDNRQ
Chain of PIK3CB (Human) (P42338 whole entry, looked up): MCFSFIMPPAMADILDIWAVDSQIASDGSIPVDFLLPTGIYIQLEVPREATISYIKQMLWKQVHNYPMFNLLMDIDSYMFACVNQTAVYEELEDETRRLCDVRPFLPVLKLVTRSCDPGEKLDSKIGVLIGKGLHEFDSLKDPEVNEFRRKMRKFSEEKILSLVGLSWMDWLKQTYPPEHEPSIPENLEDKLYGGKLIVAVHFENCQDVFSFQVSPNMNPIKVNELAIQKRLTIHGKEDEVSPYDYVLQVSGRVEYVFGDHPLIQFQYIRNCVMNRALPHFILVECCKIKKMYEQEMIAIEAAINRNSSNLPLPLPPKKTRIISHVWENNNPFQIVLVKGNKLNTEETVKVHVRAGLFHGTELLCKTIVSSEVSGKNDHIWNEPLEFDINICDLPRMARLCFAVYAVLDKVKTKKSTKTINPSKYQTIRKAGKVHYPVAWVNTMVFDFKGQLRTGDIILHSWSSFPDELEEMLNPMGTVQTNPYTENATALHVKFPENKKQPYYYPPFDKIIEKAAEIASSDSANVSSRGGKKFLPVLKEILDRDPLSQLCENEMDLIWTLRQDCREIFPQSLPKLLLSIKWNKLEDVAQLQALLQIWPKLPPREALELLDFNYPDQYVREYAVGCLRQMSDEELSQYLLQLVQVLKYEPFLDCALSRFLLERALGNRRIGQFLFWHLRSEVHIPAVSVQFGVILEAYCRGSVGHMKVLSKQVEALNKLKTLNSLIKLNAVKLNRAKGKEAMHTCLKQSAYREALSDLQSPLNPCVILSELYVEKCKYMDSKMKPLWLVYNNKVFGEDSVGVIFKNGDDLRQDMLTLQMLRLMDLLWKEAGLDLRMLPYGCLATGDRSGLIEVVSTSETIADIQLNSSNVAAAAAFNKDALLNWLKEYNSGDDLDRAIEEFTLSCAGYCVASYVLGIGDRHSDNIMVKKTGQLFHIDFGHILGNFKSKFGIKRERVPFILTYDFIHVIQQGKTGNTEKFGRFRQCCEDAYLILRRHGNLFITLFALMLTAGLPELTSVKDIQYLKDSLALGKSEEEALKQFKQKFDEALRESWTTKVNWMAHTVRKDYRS

In the case of `Cc1cc(C(C)Nc2ccccc2)c2nc(N3CCOCC3)cc(=O)n2c1` (stereo unspecified), the IC50 against PIK3CG (human) is 3500 nM and 3240 nM; on PIK3CA (human) it was 5000 nM and 784 nM.

Consider `CC(=O)Nc1cccc(-c2nc(N3CCOCC3)c3oc4ncccc4c3n2)c1`, for which the IC50 worked out at 9070 nM against PIK3CG (human), 301 nM on PIK3CA (human), 2650 nM on PIK3CB (Human) and 333 nM on PIK3CD (Human).

One may read the IC50 as the concentration that inhibits the measured activity by half. Low readings indicate higher potency, high ones lower potency.
